# Experimental data taken from article PMC6492180, “Cytome micronucleus assays with a metabolically competent human derived liver cell line (Huh6): A promising approach for routine testing of chemicals?” (Environmental and Molecular Mutagenesis, 2018).
# Like-named read-outs stand apart in the source and are kept apart here. Marks after values point to notes of the source that are not given here.
# Legend:
# [1] = tested on: Human lymphocytes; conditions: Human lymphocytes, + S9; ref Katic et al., 2010; cited from earlier work
# [2] = tested on: HepG2; conditions: HepG2, cited from earlier work
# [3] = tested on: Huh6 cells
# Procedure: All experiments were performed in duplicate.
# 3.8–4.0 × 10^5 cells per well were seeded into 6‐well plates with 3 mL of RPMI (4% FBS) for 12 hr, then dilutions of stock solutions of the diagnostic mutagens were added for different time periods (4, 24, and 48 hr). In each experimental series solvent controls were included. Subsequently, the cells were washed twice with 3.0 mL medium. […] Finally, the cells were washed and trypsinised. Afterwards the cells were washed twice with 8.0 mL RPMI and collected on slides by cytocentrifugation (600 rpm, 5 min). The slides were air dried, fixed, and stained with DiffQuick according to the instructions of the manufacturer. For each experimental point, two cultures were tested per dose. From each culture ≥1,000 BN cells were evaluated under 400‐fold magnification (Nikon Photophot‐FXA, Tokyo, Japan). At least 2,000 binucleated cells were analyzed per dose for the determination of the different nuclear anomalies (MN, NBuds, and NBs).
# The experiments were performed as described in the previous chapter. The cells were exposed only to one dose of the different mutagens and were cultivated after the seeding in 6‐well plates which contained 4% or 10% FBS in RPMI, respectively.
# Data were evaluated by generalized linear model with Poisson counts. Chi‐square tests for overdispersion were applied. […] P values ≤0.05 were considered statistically significant.
# ^150-60 000 cells were seeded in 6 well plates with 3 ml RPMI (4% FBS), subsequently different solutions of the test compound (dissolved in medium) were added. After treatment for different time periods, the cells was washed and processed as described in the Material and Method section. […] From each culture 1000 binoculated cells were evaluated. BN-MN – number of micronucleated cells; MN - total number of micronuclei; CBPI – cytokinesis-block proliferation index
# ^1The experiments were conducted essentially as described in the footnote of Table S1A-I. *p≤0.05
# [4] = tested on: Hep3B; conditions: Hep3B; ref Majer et al., 2004; cited from earlier work
# [5] = ref IARC (2018); cited from earlier work
# [6] = 10% FBS, 24 hr treatment, 100 µM
smiles,measurement,setting,value
"CN(C)N=O [NDMA, N‐nitrosodimethylamine]",Lowest effective concentration (LOEC) in micronucleus experiments,[1],Negative
same,NOEC (highest no observable effect concentration tested),[1],67500 µM
same,Lowest effective concentration (LOEC) in micronucleus experiments,"[2]; ref Majer et al., 2004",30000 µM
same,MN induction after 28 hr compared with 1 hr exposure (in words),[2]; ref Natarajan and Darroudi (1991),stronger effects
same,Lowest effective concentration (LOEC) in micronucleus experiments,"[2]; ref Valentin‐Severin et al., 2003",10000 µM
same,MN effects after 24 hr (or longer) compared with 4 hr treatment (in words),[3]; 4% FBS,more pronounced effects
same,BN-MN (number of micronucleated cells),"[3]; 4% FBS, 4hrs, 50 mM",21.0 ± 1.4 ‰
same,Bridges,"[3]; 4% FBS, 4hrs, 50 mM",0.5 ± 0.7 ‰
same,Buds,"[3]; 4% FBS, 4hrs, 50 mM",16.5 ± 2.1 ‰
same,CBPI,"[3]; 4% FBS, 4hrs, 50 mM",1.7 ± 0.1
same,MN (total number of micronuclei),"[3]; 4% FBS, 4hrs, 50 mM",21.5 ± 0.7 ‰
same,BN-MN (number of micronucleated cells),"[3]; 4% FBS, 4hrs, 100 mM",24.0 ± 2.8 ‰
same,Bridges,"[3]; 4% FBS, 4hrs, 100 mM",0.5 ± 0.7 ‰
same,Buds,"[3]; 4% FBS, 4hrs, 100 mM",20.0 ± 1.4 ‰
same,CBPI,"[3]; 4% FBS, 4hrs, 100 mM",1.7 ± 0.0
same,MN (total number of micronuclei),"[3]; 4% FBS, 4hrs, 100 mM",26.5 ± 0.7 ‰
same,BN-MN (number of micronucleated cells),"[3]; 4% FBS, 4hrs, 200 mM",26.5 ± 2.1* ‰
same,Bridges,"[3]; 4% FBS, 4hrs, 200 mM",0.5 ± 0.7 ‰
same,Buds,"[3]; 4% FBS, 4hrs, 200 mM",25.5 ± 5.0* ‰
same,CBPI,"[3]; 4% FBS, 4hrs, 200 mM",1.5 ± 0.0
same,MN (total number of micronuclei),"[3]; 4% FBS, 4hrs, 200 mM",27.5 ± 0.7* ‰
same,BN-MN (number of micronucleated cells),"[3]; 4% FBS, 24hrs, 25 mM",20.5 ± 0.7 ‰
same,Bridges,"[3]; 4% FBS, 24hrs, 25 mM",0.0 ± 0.0 ‰
same,Buds,"[3]; 4% FBS, 24hrs, 25 mM",7.0 ± 1.4 ‰
same,CBPI,"[3]; 4% FBS, 24hrs, 25 mM",1.8 ± 0.1
same,MN (total number of micronuclei),"[3]; 4% FBS, 24hrs, 25 mM",20.5 ± 0.7 ‰
same,BN-MN (number of micronucleated cells),"[3]; 4% FBS, 24hrs, 50 mM",21.5 ± 5.0 ‰
same,Bridges,"[3]; 4% FBS, 24hrs, 50 mM",0.5 ± 0.7 ‰
same,Buds,"[3]; 4% FBS, 24hrs, 50 mM",9.5 ± 2.1* ‰
same,CBPI,"[3]; 4% FBS, 24hrs, 50 mM",1.8 ± 0.1
same,MN (total number of micronuclei),"[3]; 4% FBS, 24hrs, 50 mM",22.5 ± 3.5 ‰
same,BN-MN (number of micronucleated cells),"[3]; 4% FBS, 24hrs, 100 mM",30.0 ± 2.8* ‰
same,Bridges,"[3]; 4% FBS, 24hrs, 100 mM",3.5 ± 0.7 ‰
same,Buds,"[3]; 4% FBS, 24hrs, 100 mM",13.0 ± 4.2* ‰
same,CBPI,"[3]; 4% FBS, 24hrs, 100 mM",1.7 ± 0.0
same,MN (total number of micronuclei),"[3]; 4% FBS, 24hrs, 100 mM",32.0 ± 2.8* ‰
same,BN-MN (number of micronucleated cells),"[3]; 4% FBS, 48hrs, 25 mM",20.5 ± 0.7 ‰
same,Bridges,"[3]; 4% FBS, 48hrs, 25 mM",0.5 ± 0.7 ‰
same,Buds,"[3]; 4% FBS, 48hrs, 25 mM",23.0 ± 2.8 ‰
same,CBPI,"[3]; 4% FBS, 48hrs, 25 mM",1.8 ± 0.0
same,MN (total number of micronuclei),"[3]; 4% FBS, 48hrs, 25 mM",21.5 ± 2.1 ‰
same,BN-MN (number of micronucleated cells),"[3]; 4% FBS, 48hrs, 50 mM",22.0 ± 4.2 ‰
same,Bridges,"[3]; 4% FBS, 48hrs, 50 mM",1.0 ± 1.4 ‰
same,Buds,"[3]; 4% FBS, 48hrs, 50 mM",27.0 ± 4.2 ‰
same,CBPI,"[3]; 4% FBS, 48hrs, 50 mM",1.8 ± 0.0
same,MN (total number of micronuclei),"[3]; 4% FBS, 48hrs, 50 mM",23.5 ± 5.0 ‰
same,BN-MN (number of micronucleated cells),"[3]; 4% FBS, 48hrs, 100 mM",40.5 ± 2.1* ‰
same,Bridges,"[3]; 4% FBS, 48hrs, 100 mM",3.0 ± 1.4 ‰
same,Buds,"[3]; 4% FBS, 48hrs, 100 mM",35.5 ± 3.5* ‰
same,CBPI,"[3]; 4% FBS, 48hrs, 100 mM",1.7 ± 0.1
same,MN (total number of micronuclei),"[3]; 4% FBS, 48hrs, 100 mM",53.0 ± 4.2* ‰
same,BN-MN (number of micronucleated cells),[3]; [6],33.0 ± 2.8*
same,Bridges,[3]; [6],3.5 ± 0.7
same,Buds,[3]; [6],28.0 ± 2.8
same,CBPI,[3]; [6],1.9 ± 0.0
same,MN (total number of micronuclei),[3]; [6],34.5 ± 5.0*
same,Lowest effective concentration (LOEC) in micronucleus experiments,[3]; Huh6,100000 µM
same,Lowest effective concentration (LOEC) in micronucleus experiments,[4],Negative
same,NOEC (highest no observable effect concentration tested),[4],180000 µM
same,IARC classification,[5],Methylation of the DNA; activation: CYP2E1; IARC: Group 2A
